Where “and” joins values, the source holds several entries; their conditions need not be identical. Equal values may be shown once. Read-outs that look alike come from different tables or passages of the source.
Target: T1, SARS CoV-2 M^pro (Severe acute respiratory syndrome coronavirus 2, UniProt P0DTD1)
T1 construct: The main protease (M^pro) is a part of the polyprotein chain, also named 3C-like protease; SUMO (cleaved yes); His; made in house; host or cells: Escherichia coli BL21(DE3)
Test: biochemical
Type: biochemical
Conditions: for inhibition at 80 µM: read-out: Inhibition%(80μM)

`Cc1cc(=O)oc2cc(O)c(O)cc12` [4-Methylesculetin] was tested, and the “Inhibition%(80μM)” value was 77.57%, the inhibition at 80 µM (80 μM compound, second value column of Table S2) was 79.9% and the inhibition at 80 µM was 79.1%.
In the case of `CC(C)=CCC/C(C)=C/Cc1cc(-c2coc3cc(O)ccc3c2=O)ccc1O` [corylifol A, Corylifol A], the “Inhibition%(80μM)” value is reported as 100.01% and 99.99%, the “result of retest over a concentration range” value (gradient concentrations) is reported as “unable to generate a whole curve within the concentration range” and the inhibition at 80 µM is reported as 100%.
In the case of `Oc1cc2c(cc1O)[C@@H]1c3ccc(O)c(O)c3OC[C@]1(O)C2` [hematoxylin, Hematoxylin], the “Inhibition%(80μM)” value is reported as 103.56% and 103.03% and the inhibition at 80 µM is reported as 104%.
In the case of `CCCCCCCCCCCC1=C(O)C(=O)C=C(O)C1=O` [Embelin], the “Inhibition%(80μM)” value is reported as 89.75% and 99.35% and the inhibition at 80 µM is reported as 103%.
`Oc1cc(O)cc(/C=C/c2c(O)cccc2O)c1` [Gnetol] was tested, and the “Inhibition%(80μM)” value was 81.39% and 81.62% and the inhibition at 80 µM was 81.5%.
For `CCCCCCCC/C=C\CCCCCCCCC(=O)O` [10Z-Nonadecenoic acid], the “Inhibition%(80μM)” value was 126.52% and 101.02% and 101.53%.
With `COC(=O)[C@@H](Cc1ccc(O)c(O)c1)OC(=O)[C@@H]1c2c(/C=C/C(=O)O[C@H](Cc3ccc(O)c(O)c3)C(=O)O)ccc(O)c2O[C@H]1c1ccc(O)c(O)c1` [9'-Methyl Lithospermate B] the “Inhibition%(80μM)” value was 72.67% and 74.36% and the inhibition at 80 µM was 73.6%.
For `CC1=CC(=O)C=C(C)C1=O` [2,6-Dimethylbenzoquinone], the “Inhibition%(80μM)” value was 101.34% and 101.15% and the inhibition at 80 µM was 102%.
For `NCCCN(CCCCNCCCNC(=O)CCc1ccc(O)c(O)c1)C(=O)CCc1ccc(O)c(O)c1` [Kukoamine B], the “Inhibition%(80μM)” value was 103.22% and 104.32% and the inhibition at 80 µM was 104%.
In the case of `OC[C@]1(O)COc2cc(O)ccc2-c2cc(O)c(O)cc2C1` [(7S)-3,7,10,11-Tetrahydroxy-7,8-dihydro-6H-dibenzo[b,d]oxocin-7-methanol], the “Inhibition%(80μM)” value is reported as 101.15% and 101.14% and 101.45%.
For `CCCOC(=O)c1cc(O)c(O)c(O)c1` [Propyl Gallate], the “Inhibition%(80μM)” value was 78.61% and 79.43% and the inhibition at 80 µM was 78.5%.
For (-)-Epigallocatechin, the “Inhibition%(80μM)” value was 78.95% and 75.28% and 77.55%.
For `CC(=O)OC(C)(C)CC(=O)O[C@@H](CC=C(C)C)C1=CC(=O)c2c(O)ccc(O)c2C1=O` [3-(Acetyloxy)-3-methylbutanoic acid (1S)-1-(1,4-dihydro-5,8-dihydroxy-1,4-dioxo-2-naphthalenyl)-4-methyl-3-pentenyl ester], the “Inhibition%(80μM)” value was 93.12% and 92.58% and 93.44%.
With `C[C@@H]1CC[C@]2(C(=O)O)CC[C@]3(C)C(=CC[C@@H]4[C@@]5(C)CC[C@H](O[C@@H]6OC[C@H](O)[C@H](O)[C@H]6O)C(C)(C)[C@@H]5CC[C@]43C)[C@@H]2[C@]1(C)O` [Ziyuglycoside II] the “Inhibition%(80μM)” value was 70.21% and 74.61% and 47.27%.
In the case of `O=C(O[C@@H]1Cc2c(O)cc(O)cc2O[C@@H]1c1cc(O)c(O)c(O)c1)c1cc(O)c(O)c(O)c1` [(-)-Epigallocatechin Gallate], the “Inhibition%(80μM)” value is reported as 85.53% and 79.02% and the inhibition at 80 µM is reported as 82.6%.
`Cc1ccc(O)c(O)c1` [4-Methylcatechol] was tested, and the “Inhibition%(80μM)” value was 102.51% and 102.92% and the inhibition at 80 µM was 103%.
`O=c1c(O)c(-c2ccc(O)c(O)c2)oc2cc(O)c(O)c(O)c12` [3,3',4',5,6,7-Hexahydroxyflavone] was tested, and the “Inhibition%(80μM)” value was 99.40% and 98.98% and 98.10%.
`C=C1C(=O)[C@]23[C@H](O)[C@H]1CC[C@H]2[C@@]12CO[C@]3(O)[C@@H](O)[C@@H]1C(C)(C)CC[C@@H]2O` [Oridonin] was tested, and the “Inhibition%(80μM)” value was 83.80% and 85.60% and the inhibition at 80 µM was 84.3%.
For Tubuloside A, the “Inhibition%(80μM)” value was 87.62% and 90.37% and 86.87%.
For `O=C(OC[C@H]1O[C@@H](OC(=O)c2cc(O)c(O)c(OC(=O)c3cc(O)c(O)c(O)c3)c2)[C@H](OC(=O)c2cc(O)c(O)c(OC(=O)c3cc(O)c(O)c(O)c3)c2)[C@@H](OC(=O)c2cc(O)c(O)c(OC(=O)c3cc(O)c(O)c(O)c3)c2)[C@@H]1OC(=O)c1cc(O)c(O)c(OC(=O)c2cc(O)c(O)c(O)c2)c1)c1cc(O)c(O)c(OC(=O)c2cc(O)c(O)c(O)c2)c1` [Tannic Acid], the “Inhibition%(80μM)” value was 88.66% and 87.66% and the inhibition at 80 µM was 89.6%.
With `O=C(O)CCc1ccc(O)c(O)c1` [Hydrocaffeic Acid] the “Inhibition%(80μM)” value was 90.29% and 90.08% and the inhibition at 80 µM was 88.3%.
